Test: Solubility of compound I in water
Assay type: physicochemical
Source text: The bitter taste of compound I can also be overcome by using flavouring agents (1.5) and/or sweetening agents (1.6).

Effect of an acidifying agent on solubility of compound I (presence of an acidifying agent (1.4), tablet dispersed with water): decreases the solubility
Solubility in water (water): practically insoluble
SMILES: COc1ccccc1Oc1c(NS(=O)(=O)c2ccc(C(C)(C)C)cc2)nc(-c2ncccn2)nc1OCCO [compound I, 4-tert-butyl-N-[6-(2-hydroxy-ethoxy)-5-(2-methoxy-phenoxy)-2-(pyrimidin-2-yl)-pyrimidin-4-yl]-benzenesulfonamide]
